Laboratory results: US7288556B2, “Antiproliferative 1,2,3-thiadiazole compounds” (QLT Inc., priority 2000, dated 2007)
Marks after values point to notes of the source that are not given here.

Assays:
[1] = tested on: IEC-18-13 Epithelium; assay: Matrigel invasion assay, IEC-18-13; assay type: cell-based; details: 10 μm, 24 h, control 34.9
Experimental: (§1) c. Invasion Assays: Invasion of cells into surrounding tissue is a hallmark property of tissue remodeling. Tissue remodeling occurs during most pathological progression, including tumor progression, angiogenesis and during normal processes such as wound healing. The following invasion assays were performed using Biocoat® Cell Environments™ Matrigel Invasion Chamber 24-Well Plate Size (Becton Dickinson). The invasion chambers can be used to assess the ability of a cell to traverse an extracellular matrix under a variety of conditions. The chambers consist of a 24 well plate and […] that can be suspended in each well and act as an upper chamber. Cells place in the upper chamber insert must invade through a matrix in order to enter the lower chamber.
(§2) Cells were pre-labeled with ^3H-thymidine overnight. Typically, 5×10^5 cells were cultured overnight in 5 mls of serum-containing media spiked with 200 μl of thymidine stock solution. Cells were scraped off of the flask substratum and gently pipetted up and down to achieve single cell suspension in the medium. […]
(§3) After an incubation period of 24 h, media was carefully removed from the upper chamber insert and saved for scintillation counting. […] The relative amount of cell invasion was calculated by adding counts from the filters and lower chambers and dividing this sum by the total counts added initially to the upper chambers. […]

[2] = tested on: HUVEC; assay: HUVEC endothelial proliferation in response to test compounds (MTS); assay type: cell-based
Experimental: (§4) Endothelial cell cultures: Cell lines used include HUVEC, EJG and MS1 and are routinely passaged 1 to 2 times weekly. Endothelial growth media (EGM) consists of Endothelial Base Media plus all supplements (Clonetics). For testing of compounds, endothelial cells were plated on 1% gelatin-coated plates. Prior to plating, gelatin solution was added to the plates for at least 10 minutes before plating, but excess solution removed immediately before adding cells. Sterile gelatin solution consists of 1% gelatin in dH2O that has been autoclaved. Endothelial cells form a characteristic cobblestone monolayer upon confluency. Typically, a T-75 plate contains 1 million microvascular cells upon confluency.
a. HUVEC Endothelial Proliferation in Response to Test compounds: HUVEC were cultured in 96-well plates and treated with a dilution series of test compounds for potential angiogenesis-related effects.
Day 0—Endothelium are plated at 5000 cells/well and at 10,000 cells/well.
Day1—Treatments are added in EGM culture medium in an appropriate dilution series (n=6 or 12). Controls included EGM alone, serum free medium (SFM), and EGM plus 0.5% DMSO.
Day 1-2, MTS/PMS solutions were added and plates read at 4 and 24 h after treatment.

[3] = tested on: Lewis Lung cell line; details: cells inoculated subcutaneously in rear flank of mice, compound i.p. daily
Experimental: Anti-tumour efficacy and dose response in allograft and xenograft models. Cell lines were selected from an in vitro assay based on ILK expression, and growth curves characterized in vivo. Preliminary tests were performed with the Lewis Lung cell line in a murine allograft tumor model. In parallel, human xenograft tumor lines were characterized.
Cells were inoculated subcutaneously in the rear flank of mice, and the test compound was administered i.p. daily. Tumors were measured and the size calculated, with the objective being a decrease in tumor growth compared to the controls.

[4] = tested on: IEC-18 Epithelium; assay: Matrigel invasion assay, IEC-18; assay type: cell-based; details: 10 μm, 24 h, control 16.8
Experimental: as §1, §2, §3

[5] = tested on: HUVEC; assay: 3H-Thymidine incorporation proliferation assay; assay type: cell-based; details: 10 μm
Experimental: as §4
b. Thymidine incorporation proliferation assay: Cells were plated out and grown overnight. The next day the test compound or controls were added to the plates, along with diluted ^3H-thymidine added to a final concentration of 0.1 μCi/well, and the plates were incubated. After 24 h, the plates were spun down 1000 g for 10 min (for non-adherent cells) before removing the PBS. A volume of 120 μl of the scintillant fluid was added to each of the wells, and the plate was read.

[6] = tested on: chick chorioallantoic membrane; assay: Chick chorioallantoic membrane (CAM) developmental angiogenesis assay; assay type: in vivo, chicken
Experimental: e. Chick chorioallantoic membrane assay (CAM assay): was performed on fertilized chicken eggs and used as a test for angiogenesis inhibition.
Approximately 4 dozen fertilized eggs were sprayed with 70% ETOH and placed in a 180 egg incubator (GQF Sportsman incubator). The eggs were incubated “rounded-side down” and were fully rotated along the vertical axis every 30 minutes at 37° C. under 90% relative humidity.
After 4 days, the eggs were placed upside down (round side up) for 5-10 minutes, before a round hole approximately 3 centimeters in diameter was created above the pointed end or “air hole” of the egg using sterile blunt-ended forceps (“deshelling”). The inner membrane was also removed, and the embryo was visible through this opening. A small portion of the outer membrane was then carefully removed using fine-tipped forceps in order to expose the CAM. Sterile Parafilm was placed over the de-shelled opening to create an airtight seal. The eggs were returned to the incubator (with no rotation) for 2 days.
Viable eggs were then treated with control and inhibitor compounds. Gelfoam™ gelatin sterile sponge (Upjohn) or 1-2 mm discs of methylcellulose saturated with physiological saline, buffer or an appropriate dilution of the compounds under investigation. The Gelfoam™ fragments of methylcellulose discs were added directly to the surface of the developing CAM. Care was taken not to add the treatment directly over a large vessel. The shells were marked in 3 places to aid in stereotactic localization of the treatment sponge or disc. An average of 6 eggs were included for each experimental condition. The treated eggs were returned to the incubator for 2 days.
The eggs were then assessed for blood vessel growth inhibition. Photomicrographs for records and visual examination were made using a Nikon dissecting microscope with an attached Nikon 35-mm camera body.

[7] = HUVEC in log phase growth, 5 μm
[8] = HUVEC in log phase growth, 10 μm
[9] = HUVEC in log phase growth, 20 μm

With `NC(=O)c1nnsc1Nc1ccccc1` [KP-15807, 5-Phenylamino-[1,2,3]thiadiazole-4-carboxylicacid amide] the “% Cell Invasion” value [1] was 8%, the “MTS Relative Absorbance 4 h” value [2, 7] was 1.26 +/− 0.17 and the “MTS Relative Absorbance 24 h” value [2, 7] was 1.22 +/− 0.09. For the same molecule, the “MTS Relative Absorbance 4 h” value [2, 8] was 1.31 +/− 0.09, the “MTS Relative Absorbance 24 h” value [2, 8] was 1.24 +/− 0.04 and the “MTS Relative Absorbance 4 h” value [2, 9] was 1.25 +/− 0.03. The “MTS Relative Absorbance 24 h” value [2, 9] was 1.21 +/− 0.05, the “MTS Relative Absorbance 4 h” value ([2]; HUVEC post-confluent, 5 μm) was 2.06 +/− 0.20 and the “MTS Relative Absorbance 24 h” value ([2]; HUVEC post-confluent, 5 μm) was 1.55 +/− 0.17. For the same molecule, the “MTS Relative Absorbance 4 h” value ([2]; HUVEC post-confluent, 10 μm) was 2.30 +/− 0.05, the “MTS Relative Absorbance 24 h” value ([2]; HUVEC post-confluent, 10 μm) was 1.62 +/− 0.12 and the “MTS Relative Absorbance 4 h” value ([2]; HUVEC post-confluent, 20 μm) was 2.52 +/− 0.05. For the same molecule, the “MTS Relative Absorbance 24 h” value ([2]; HUVEC post-confluent, 20 μm) was 1.71 +/− 0.02, the “tumor growth compared to control” value [3] was “succeeded in reducing tumor growth compared to control” and the “% Cell Invasion” value [4] was 9%. The “3H-Thymidine incorporation at 24 h” value ([5]; HUVEC in log phase growth) was 746 +/− 200, the “3H-Thymidine incorporation at 48 h” value ([5]; HUVEC in log phase growth) was 1251 +/− 117 and the “3H-Thymidine incorporation at 24 h” value ([5]; HUVEC post-confluent) was 571 +/− 86. The “3H-Thymidine incorporation at 48 h” value ([5]; HUVEC post-confluent) was 452 +/− 71*, the “% Inhibition” value ([6]; 5 μm) was 60% and the “% Inhibition” value ([6]; 10 μm) was 75%. The “% Inhibition” value ([6]; 20 μm) was 85% and the melting point was 195 to 197 °C.
